Data published in ChEMBL document CHEMBL1159020, “Phytotoxins of Ascochyta hyalospora, Causal Agent of Lambsquarters Leaf Spot” (1992).
Calls of active or inactive are those of the source. The calls are words filed in the database; no cut-off is given here.

How the values were obtained:
[1] = system: Curtobacterium flaccumfaciens; test: Antimicrobial activity against Corynebacterium flaccumfaciens at 500 ug by antibiotic disk assay; assay type: functional; conditions: read-out: Diameter of inhibition zone
Sida spinosa [2] = test: Phytotoxicity against Prickly sida assessed as leaf necrotic area at 50 ug by detached leaf assay; assay type: functional
Senna obtusifolia [3] = test: Phytotoxicity against Sicklepod assessed as leaf necrotic area at 50 ug by detached leaf assay; assay type: functional
Aspergillus flavus [4] = test: Antimicrobial activity against Aspergillus flavus at 1000 ug by antibiotic disk assay; assay type: functional; conditions: read-out: Diameter of inhibition zone
Penicillium chrysogenum [5] = test: Antimicrobial activity against Penicillium notatum at 500 ug by antibiotic disk assay; assay type: functional; conditions: read-out: Diameter of inhibition zone
Datura stramonium [6] = test: Phytotoxicity against Jimsonweed assessed as leaf necrotic area at 100 ug by detached leaf assay; assay type: functional
[7] = system: Pectobacterium carotovorum; test: Antimicrobial activity against Erwinia carotovora at 1000 ug by antibiotic disk assay; assay type: functional; conditions: read-out: Diameter of inhibition zone
Escherichia coli [8] = test: Antimicrobial activity against Escherichia coli at 500 ug by antibiotic disk assay; assay type: functional; conditions: read-out: Diameter of inhibition zone
Ipomoea [9] = test: Phytotoxicity against Ipomoea sp. assessed as leaf necrotic area at 25 ug by detached leaf assay; assay type: functional
Sorghum bicolor [10] = test: Phytotoxicity against Sorghum bicolor assessed as leaf necrotic area at 50 ug by detached leaf assay; assay type: functional
Sorghum halepense [11] = test: Phytotoxicity against Johnson grass assessed as leaf necrotic area at 50 ug by detached leaf assay; assay type: functional
Sorghum halepense [12] = test: Phytotoxicity against Johnson grass assessed as leaf necrotic area at 25 ug by detached leaf assay; assay type: functional
Aspergillus flavus [13] = test: Antimicrobial activity against Aspergillus flavus at 500 ug by antibiotic disk assay; assay type: functional; conditions: read-out: Diameter of inhibition zone
Senna obtusifolia [14] = test: Phytotoxicity against Sicklepod assessed as leaf necrotic area at 25 ug by detached leaf assay; assay type: functional
Nasturtium officinale [15] = test: Phytotoxicity against watercress assessed as leaf necrotic area at 25 ug by detached leaf assay; assay type: functional
Poa nemoralis [16] = test: Phytotoxicity against bent grass assessed as leaf necrotic area at 25 ug by detached leaf assay; assay type: functional
Chenopodium album [17] = test: Phytotoxicity against Lamb's quarters assessed as leaf necrotic area at 25 ug by detached leaf assay; assay type: functional
Ambrosia artemisiifolia [18] = test: Phytotoxicity against rag weed assessed as leaf necrotic area at 25 ug by detached leaf assay; assay type: functional
Senna obtusifolia [19] = test: Phytotoxicity against Sicklepod assessed as leaf necrotic area at 100 ug by detached leaf assay; assay type: functional
Poa nemoralis [20] = test: Phytotoxicity against bent grass assessed as leaf necrotic area at 50 ug by detached leaf assay; assay type: functional
[21] = system: Pectobacterium carotovorum; test: Antimicrobial activity against Erwinia carotovora at 500 ug by antibiotic disk assay; assay type: functional; conditions: read-out: Diameter of inhibition zone
Chenopodium album [22] = test: Phytotoxicity against Lamb's quarters assessed as leaf necrotic area at 100 ug by detached leaf assay; assay type: functional
Colletotrichum acutatum [23] = test: Antimicrobial activity against Colletotrichum acutatum at 1000 ug by antibiotic disk assay; assay type: functional; conditions: read-out: Diameter of inhibition zone
[24] = system: Agrobacterium tumefaciens; test: Antimicrobial activity against Agrobacterium tumefaciens at 500 ug by antibiotic disk assay; assay type: functional; conditions: read-out: Diameter of inhibition zone
Sorghum bicolor [25] = test: Phytotoxicity against Sorghum bicolor assessed as leaf necrotic area at 25 ug by detached leaf assay; assay type: functional
Sorghum bicolor [26] = test: Phytotoxicity against Sorghum bicolor assessed as inhibition of root growth at 1000 ug after 24 hrs root growth assay; assay type: functional, organism-based
Datura stramonium [27] = test: Phytotoxicity against Jimsonweed assessed as leaf necrotic area at 25 ug by detached leaf assay; assay type: functional
Penicillium chrysogenum [28] = test: Antimicrobial activity against Penicillium notatum at 1000 ug by antibiotic disk assay; assay type: functional; conditions: read-out: Diameter of inhibition zone
Escherichia coli [29] = test: Antimicrobial activity against Escherichia coli at 1000 ug by antibiotic disk assay; assay type: functional; conditions: read-out: Diameter of inhibition zone
Colletotrichum acutatum [30] = test: Antimicrobial activity against Colletotrichum acutatum at 500 ug by antibiotic disk assay; assay type: functional; conditions: read-out: Diameter of inhibition zone
Ambrosia artemisiifolia [31] = test: Phytotoxicity against rag weed assessed as leaf necrotic area at 100 ug by detached leaf assay; assay type: functional
Sorghum halepense [32] = test: Phytotoxicity against Johnson grass assessed as leaf necrotic area at 100 ug by detached leaf assay; assay type: functional
Nasturtium officinale [33] = test: Phytotoxicity against Nasturtium officinale assessed as leaf necrotic area at 100 ug by detached leaf assay; assay type: functional
Ipomoea [34] = test: Phytotoxicity against Ipomoea sp. assessed as leaf necrotic area at 50 ug by detached leaf assay; assay type: functional
Datura stramonium [35] = test: Phytotoxicity against Jimsonweed assessed as leaf necrotic area at 50 ug by detached leaf assay; assay type: functional
[36] = system: Agrobacterium tumefaciens; test: Antimicrobial activity against Agrobacterium tumefaciens at 1000 ug by antibiotic disk assay; assay type: functional; conditions: read-out: Diameter of inhibition zone
Sorghum bicolor [37] = test: Phytotoxicity against Sorghum bicolor assessed as leaf necrotic area at 100 ug by detached leaf assay; assay type: functional
Chenopodium album [38] = test: Phytotoxicity against Lamb's quarters assessed as leaf necrotic area at 50 ug by detached leaf assay; assay type: functional
Chenopodium album [39] = test: Phytotoxicity against Lamb's quarters assessed as electrolyte leakage at 500 to 1000 ug/ml; assay type: functional, organism-based
Sida spinosa [40] = test: Phytotoxicity against Prickly sida assessed as leaf necrotic area at 25 ug by detached leaf assay; assay type: functional
[41] = system: Curtobacterium flaccumfaciens; test: Antimicrobial activity against Corynebacterium flaccumfaciens at 1000 ug by antibiotic disk assay; assay type: functional; conditions: read-out: Diameter of inhibition zone
Ipomoea [42] = test: Phytotoxicity against Ipomoea sp. assessed as leaf necrotic area at 100 ug by detached leaf assay; assay type: functional
Nasturtium officinale [43] = test: Phytotoxicity against watercress assessed as leaf necrotic area at 50 ug by detached leaf assay; assay type: functional
Sida spinosa [44] = test: Phytotoxicity against Prickly sida assessed as leaf necrotic area at 100 ug by detached leaf assay; assay type: functional
Ambrosia artemisiifolia [45] = test: Phytotoxicity against rag weed assessed as leaf necrotic area at 50 ug by detached leaf assay; assay type: functional
Sida spinosa [46] = test: Phytotoxicity against Prickly sida assessed as leaf necrotic area at 10 ug by detached leaf assay; assay type: functional
Sorghum halepense [47] = test: Phytotoxicity against Johnson grass assessed as leaf necrotic area at 10 ug by detached leaf assay; assay type: functional
Poa nemoralis [48] = test: Phytotoxicity against bent grass assessed as leaf necrotic area at 10 ug by detached leaf assay; assay type: functional
Nasturtium officinale [49] = test: Phytotoxicity against watercress assessed as leaf necrotic area at 10 ug by detached leaf assay; assay type: functional
Senna obtusifolia [50] = test: Phytotoxicity against Sicklepod assessed as leaf necrotic area at 10 ug by detached leaf assay; assay type: functional
Sorghum bicolor [51] = test: Phytotoxicity against Sorghum bicolor assessed as leaf necrotic area at 10 ug by detached leaf assay; assay type: functional
Chenopodium album [52] = test: Phytotoxicity against Lamb's quarters assessed as leaf necrotic area at 10 ug by detached leaf assay; assay type: functional
Ipomoea [53] = test: Phytotoxicity against Ipomoea sp. assessed as leaf necrotic area at 10 ug by detached leaf assay; assay type: functional
Datura stramonium [54] = test: Phytotoxicity against Jimsonweed assessed as leaf necrotic area at 10 ug by detached leaf assay; assay type: functional
Ambrosia artemisiifolia [55] = test: Phytotoxicity against rag weed assessed as leaf necrotic area at 10 ug by detached leaf assay; assay type: functional

## CCC(C)c1occ2c(=O)c(C(=O)O)c(O)cc-2c1C (configuration not stated) [ASCOCHYTINE]
[1]
  zone of inhibition at 500 µg/disc: 30 mm
Sida spinosa [2]
  Activity: 20 mm2
Senna obtusifolia [3]
  Activity: 13 mm2
Aspergillus flavus [4]
  zone of inhibition at 1000 µg/disc: 0 mm
Penicillium chrysogenum [5]
  zone of inhibition at 500 µg/disc: 0 mm
Datura stramonium [6]
  Activity: 22 mm2
[7]
  zone of inhibition at 1000 µg/disc: 0 mm
Escherichia coli [8]
  zone of inhibition at 500 µg/disc: 8 mm
Ipomoea [9]
  Activity: 8 mm2
Sorghum bicolor [10]
  Activity: 18 mm2
Sorghum halepense [11]
  Activity: 10 mm2
Sorghum halepense [12]
  Activity: 10 mm2
Aspergillus flavus [13]
  zone of inhibition at 500 µg/disc: 0 mm
Senna obtusifolia [14]
  Activity: 9 mm2
Nasturtium officinale [15]
  Activity: 2 mm2
Poa nemoralis [16]
  Activity: 7 mm2
Chenopodium album [17]
  Activity: 5 mm2
Ambrosia artemisiifolia [18]
  Activity: 5 mm2
Senna obtusifolia [19]
  Activity: 16 mm2
Poa nemoralis [20]
  Activity: 8 mm2
[21]
  zone of inhibition at 500 µg/disc: 0 mm
Chenopodium album [22]
  Activity: 19 mm2
Colletotrichum acutatum [23]
  zone of inhibition at 1000 µg/disc: 20 mm
[24]
  zone of inhibition at 500 µg/disc: 26 mm
Sorghum bicolor [25]
  Activity: 12 mm2
Sorghum bicolor [26]
  Activity: Active
Datura stramonium [27]
  Activity: 11 mm2
Penicillium chrysogenum [28]
  zone of inhibition at 1000 µg/disc: 10 mm
Escherichia coli [29]
  zone of inhibition at 1000 µg/disc: 10 mm
Colletotrichum acutatum [30]
  zone of inhibition at 500 µg/disc: 18 mm
Ambrosia artemisiifolia [31]
  Activity: 8 mm2
Sorghum halepense [32]
  Activity: 24 mm2
Nasturtium officinale [33]
  Activity: 20 mm2
Ipomoea [34]
  Activity: 9 mm2
Datura stramonium [35]
  Activity: 15 mm2
[36]
  zone of inhibition at 1000 µg/disc: 35 mm
Sorghum bicolor [37]
  Activity: 28 mm2
Chenopodium album [38]
  Activity: 11 mm2
Chenopodium album [39]
  Activity: Active
Sida spinosa [40]
  Activity: 6 mm2
[41]
  zone of inhibition at 1000 µg/disc: 42 mm
Ipomoea [42]
  Activity: 9 mm2
Nasturtium officinale [43]
  Activity: 5 mm2
Sida spinosa [44]
  Activity: 35 mm2
Ambrosia artemisiifolia [45]
  Activity: 5 mm2

## CCC(C)c1oc(CC(C)O)cc(=O)c1C (configuration not stated) [HYALOPYRONE]
[1]
  zone of inhibition at 500 µg/disc: 12 mm
Sida spinosa [2]
  Activity: 7 mm2
Senna obtusifolia [3]
  Activity: 3 mm2
Penicillium chrysogenum [5]
  zone of inhibition at 500 µg/disc: 12 mm
Datura stramonium [6]
  Activity: 3 mm2
Escherichia coli [8]
  zone of inhibition at 500 µg/disc: 0 mm
Sorghum bicolor [10]
  Activity: 18 mm2
Sorghum halepense [11]
  Activity: 11 mm2
Aspergillus flavus [13]
  zone of inhibition at 500 µg/disc: 10 mm
Senna obtusifolia [19]
  Activity: 4 mm2
Poa nemoralis [20]
  Activity: 6 mm2
[21]
  zone of inhibition at 500 µg/disc: 0 mm
Chenopodium album [22]
  Activity: 5 mm2
[24]
  zone of inhibition at 500 µg/disc: 0 mm
Colletotrichum acutatum [30]
  zone of inhibition at 500 µg/disc: 16 mm
Ambrosia artemisiifolia [31]
  Activity: 18 mm2
Sorghum halepense [32]
  Activity: 15 mm2
Nasturtium officinale [33]
  Activity: 7 mm2
Ipomoea [34]
  Activity: 5 mm2
Datura stramonium [35]
  Activity: 0 mm2
Sorghum bicolor [37]
  Activity: 23 mm2
Chenopodium album [38]
  Activity: 4 mm2
Ipomoea [42]
  Activity: 8 mm2
Nasturtium officinale [43]
  Activity: 5 mm2
Sida spinosa [44]
  Activity: 13 mm2
Ambrosia artemisiifolia [45]
  Activity: 10 mm2

## C[C@H]1OC(=O)/C=C\C(=O)/C=C/[C@H]2O[C@@H]12 [PYRENOLIDE A]
[1]
  zone of inhibition at 500 µg/disc: 22 mm
Sida spinosa [46]
  Activity: 0 mm2
Sida spinosa [2]
  Activity: 4 mm2
Senna obtusifolia [3]
  Activity: 2 mm2
Aspergillus flavus [4]
  zone of inhibition at 1000 µg/disc: 0 mm
Sorghum halepense [47]
  Activity: 3 mm2
Penicillium chrysogenum [5]
  zone of inhibition at 500 µg/disc: 16 mm
[7]
  zone of inhibition at 1000 µg/disc: 0 mm
Escherichia coli [8]
  zone of inhibition at 500 µg/disc: 0 mm
Poa nemoralis [48]
  Activity: 0 mm2
Nasturtium officinale [49]
  Activity: 0 mm2
Senna obtusifolia [50]
  Activity: 0 mm2
Ipomoea [9]
  Activity: 0 mm2
Sorghum bicolor [10]
  Activity: 10 mm2
Sorghum halepense [11]
  Activity: 18 mm2
Sorghum halepense [12]
  Activity: 7 mm2
Aspergillus flavus [13]
  zone of inhibition at 500 µg/disc: 0 mm
Senna obtusifolia [14]
  Activity: 0 mm2
Nasturtium officinale [15]
  Activity: 0 mm2
Poa nemoralis [16]
  Activity: 0 mm2
Chenopodium album [17]
  Activity: 5 mm2
Sorghum bicolor [51]
  Activity: 2 mm2
Ambrosia artemisiifolia [18]
  Activity: 3 mm2
Chenopodium album [52]
  Activity: 2 mm2
Poa nemoralis [20]
  Activity: 0 mm2
[21]
  zone of inhibition at 500 µg/disc: 0 mm
Ipomoea [53]
  Activity: 0 mm2
Colletotrichum acutatum [23]
  zone of inhibition at 1000 µg/disc: 32 mm
Datura stramonium [54]
  Activity: 0 mm2
[24]
  zone of inhibition at 500 µg/disc: 4 mm
Sorghum bicolor [25]
  Activity: 8 mm2
Sorghum bicolor [26]
  Activity: Active
Datura stramonium [27]
  Activity: 0 mm2
Ambrosia artemisiifolia [55]
  Activity: 0 mm2
Penicillium chrysogenum [28]
  zone of inhibition at 1000 µg/disc: 22 mm
Escherichia coli [29]
  zone of inhibition at 1000 µg/disc: 0 mm
Colletotrichum acutatum [30]
  zone of inhibition at 500 µg/disc: 21 mm
Ipomoea [34]
  Activity: 3 mm2
Datura stramonium [35]
  Activity: 2 mm2
[36]
  zone of inhibition at 1000 µg/disc: 22 mm
Chenopodium album [38]
  Activity: 13 mm2
Chenopodium album [39]
  Activity: Active
Sida spinosa [40]
  Activity: 0 mm2
[41]
  zone of inhibition at 1000 µg/disc: 34 mm
Nasturtium officinale [43]
  Activity: 1 mm2
Ambrosia artemisiifolia [45]
  Activity: 6 mm2
